Each structure is given as a SMILES string. A value given as a limit tells only on which side of the number the result lay.

What is called melting point is the temperature of the solid-liquid transition. On to `CC(C)n1nc(-c2nc(NC3CCN(Cc4ccccc4)C3)c(N)nc2-c2ccccc2)ccc1=O` (stereo not drawn) [Example 138, 6-{5-amino-6-[(1-benzyl-3-pyrrolidinyl)amino]-3-phenyl-2-pyrazinyl)-2-isopropyl-3(2H)-pyridazinone], for which the melting point fell in the range of 86 to 91 °C. In turn, `CC(C)n1nc(-c2nc(Nc3ccccc3)c(N)nc2-c2ccccc2)ccc1=O` [Example 139, 6-(5-amino-6-anilino-3-phenyl-2-pyrazinyl)-2-isopropyl-3(2H)-pyridazinone] displayed a melting point greater than 250 °C. `CC(C)n1nc(-c2nc(N3CCOCC3)c(N)nc2-c2ccccc2)ccc1=O` [Example 140, 6-[5-amino-6-(4-morpholinyl)-3-phenyl-2-pyrazinyl]-2-isopropyl-3(2H)-pyridazinone] gave a melting point of 212 to 214.5 °C. As for `CC(C)n1nc(-c2nc(N3CCCC3)c(N)nc2-c2ccccc2)ccc1=O` [Example 141, 6-[5-amino-3-phenyl-6-(1-pyrrolidinyl)-2-pyrazinyl]-2-isopropyl-3(2H)-pyridazinone], the melting point fell in the range of 192 to 194.5 °C. The compound `CC(C)n1nc(-c2nc(N3CCN(c4ccccn4)CC3)c(N)nc2-c2ccccc2)ccc1=O` [Example 142, 6-{5-amino-3-phenyl-6-[4-(2-pyridyl)-1-piperazinyl]-2-pyrazinyl}-2-isopropyl-3(2H)-pyridazinone] returned a melting point of 163 to 165 °C.

`Cn1nc(-c2nc(N(CCO)Cc3ccccc3)c(N)nc2-c2ccccc2)ccc1=O` [Example 143, 6-{5-amino-6-[benzyl(2-hydroxyethyl)amino]-3-phenyl-2-pyrazinyl}-2-methyl-3(2H)-pyridazinone] displayed a melting point of 210 to 212 °C.

In turn, `Cn1nc(-c2nc(NCc3ccccc3)c(N)nc2-c2ccccc2)ccc1=O` [Example 144, 6-[5-amino-6-(benzylamino)-3-phenyl-2-pyrazinyl]-2-methyl-3(2H)-pyridazinone] registered a melting point greater than 250 °C. Turning to `CN(C)c1nc(-c2ccc(=O)n(C)n2)c(-c2ccccc2)nc1N` [Example 144, 6-[5-amino-6-(dimethylamino)-3-phenyl-2-pyrazinyl]-2-methyl-3(2H)-pyridazinone], the melting point was in the range of 150 to 152 °C. The result for `COc1ccc(CNc2nc(-c3ccc(=O)n(C)n3)c(-c3ccccc3)nc2N)cc1` [Example 145, 6-[5-amino-6-[(4-methoxybenzyl)amino]-3-phenyl-2-pyrazinyl}-2-methyl-3(2H)-pyridazinone] reads greater than 250 °C; that for `Cn1nc(-c2nc(NCc3ccccn3)c(N)nc2-c2ccccc2)ccc1=O` [Example 146, 6-{5-amino-3-phenyl-6-[(2-pyridylmethyl)amino]-2-pyrazinyl}-2-methyl-3(2H)-pyridazinone], greater than 250 °C; that for `CC(C)n1nc(-c2nc(-n3cccc3)c(N)nc2-c2ccccc2)ccc1=O` [Example 147, 6-[5-amino-3-phenyl-6-(1H-pyrrol-1-yl)-2-pyrazinyl]-2-isopropyl-3(2H)-pyridazinone], 132 to 136 °C.

Take `Cn1nc(-c2nc(-n3cccc3)c(N)nc2-c2ccccc2)ccc1=O` [Example 148, 6-[5-amino-3-phenyl-6-(1H-pyrrol-1-yl)-2-pyrazinyl]-2-methyl-3(2H)-pyridazinone]: the melting point was in the range of 202 to 205 °C. On to `CC(C)n1nc(-c2nc(-n3cccn3)c(N)nc2-c2ccccc2)ccc1=O` [Example 149, 6-[5-amino-3-phenyl-6-(1H-pyrazol-1-yl)-2-pyrazinyl]-2-isopropyl-3(2H)-pyridazinone], for which the melting point lay within 210 to 212 °C.

Compound `CC(C)n1nc(-c2nc(-n3ccnc3)c(N)nc2-c2ccccc2)ccc1=O` [Example 150, 6-[5-amino-6-(1H-imidazol-1-yl)-3-phenyl-2-pyrazinyl]-2-isopropyl-3(2H)-pyridazinone] returned a melting point greater than 250 °C. The result for `CC(C)n1nc(-c2nc(-n3cncn3)c(N)nc2-c2ccccc2)ccc1=O` [Example 151, 6-[5-amino-3-phenyl-6-(1H-1,2,4-triazol-1-yl)-2-pyrazinyl]-2-isopropyl-3(2H)-pyridazinone] reads 240 to 241.5 °C; that for `CC(C)n1nc(-c2nc(-n3cnc4ccccc43)c(N)nc2-c2ccccc2)ccc1=O` [Example 152, 6-[5-amino-6-(1H-benzimidazol-1-yl)-3-phenyl-2-pyrazinyl]-2-isopropyl-3(2H)-pyridazinone], greater than 250 °C. `Cn1nc(-c2nc(-n3ccnc3)c(N)nc2-c2ccccc2)ccc1=O` [Example 154, 6-[5-amino-6-(1H-imidazol-1-yl)-3-phenyl-2-pyrazinyl]-2-methyl-3(2H)-pyridazinone] yielded a melting point greater than 250 °C.

`Cn1nc(-c2nc(-n3cncn3)c(N)nc2-c2ccccc2)ccc1=O` [Example 155, 6-[5-amino-3-phenyl-6-(1H-1,2,4-triazol-1-yl)-2-pyrazinyl]-2-methyl-3(2H)-pyridazinone] returned a melting point greater than 250 °C.

`Cn1nc(-c2nc(-n3cnc4ccccc43)c(N)nc2-c2ccccc2)ccc1=O` [Example 156, 6-[5-amino-6-(1H-benzimidazol-1-yl)-3-phenyl-2-pyrazinyl]-2-methyl-3(2H)-pyridazinone]: the melting point was greater than 250 °C. The result for `COc1nc(-c2ccc(=O)n(C(C)C)n2)c(-c2ccccc2)nc1N` [Example 157, 6-(5-amino-6-methoxy-3-phenyl-2-pyrazinyl)-2-isopropyl-3(2H)-pyridazinone] reads 211 to 214 °C. In the case of `CC(C)n1nc(-c2nc(Oc3ccc(F)cc3)c(N)nc2-c2ccccc2)ccc1=O` [Example 158, 6-[5-amino-6-(4-fluorophenoxy)-3-phenyl-2-pyrazinyl]-2-isopropyl-3(2H)-pyridazinone] it was 173 to 175 °C. The result for `CC(C)n1nc(-c2nc(Sc3ccc(F)cc3)c(N)nc2-c2ccccc2)ccc1=O` [Example 159, 6-{5-amino-6-[(4-fluorophenyl)thio]-3-phenyl-2-pyrazinyl}-2-isopropyl-3(2H)-pyridazinone] reads 148 to 150 °C; that for `CC(C)Oc1nc(-c2ccc(=O)n(C(C)C)n2)c(-c2ccccc2)nc1N` [Example 160, 6-(5-amino-6-isopropoxy-3-phenyl-2-pyrazinyl)-2-isopropyl-3(2H)-pyridazinone], 198 to 200 °C. As to `CC(C)n1nc(-c2nc(OC3CCCCC3)c(N)nc2-c2ccccc2)ccc1=O` [Example 161, 6-[5-amino-6-(cyclohexyloxy)-3-phenyl-2-pyrazinyl]-2-isopropyl-3(2H)-pyridazinone], the melting point lay in the range of 161 to 163 °C. The result for `CC(C)n1nc(-c2nc(OCc3ccccc3)c(N)nc2-c2ccccc2)ccc1=O` [Example 162, 6-[5-amino-6-(benzyloxy)-3-phenyl-2-pyrazinyl]-2-isopropyl-3(2H)-pyridazinone] reads 118 to 120 °C; that for `CC(C)n1nc(-c2nc(OCc3ccco3)c(N)nc2-c2ccccc2)ccc1=O` [Example 164, 6-[5-amino-6-(2-furylmethoxy)-3-phenyl-2-pyrazinyl]-2-isopropyl-3(2H)-pyridazinone], 172 to 174 °C; that for `CCCCOc1nc(-c2ccc(=O)n(C(C)C)n2)c(-c2ccccc2)nc1N` [Example 165, 6-(5-amino-6-butoxy-3-phenyl-2-pyrazinyl)-2-isopropyl-3(2H)-pyridazinone], 130 to 131.5 °C.
